From patent US20050187150A1, “Structure-based design and synthesis of FGF inhibitors and FGF modulator compounds” (New York University, priority 2001, published 2005)
Each block holds one molecule with its values, some of them ahead of it.

How the values were obtained:
FGF2-FGFR1 complexes [1] = biological target: T1, FGF2-FGFR1 complexes (Homo sapiens, UniProt P09038+P11362); experiment: Size exclusion chromatography of purified 1:1 FGF2:FGFR1 complexes mixed with test compound (dimerization); type: binding; details: for dimerization of FGF:FGFR complex (peaks in size exclusion chromatogram): compound added at 1:1:1 molar ratio FGF2:FGFR1:compound; for dimerization of FGF:FGFR complex (dimer peak D in size exclusion chromatogram): compound added at molar ratio 1:1:0.25 and 1:1:0.5 FGF2:FGFR1:compound, Superdex 200, 25 mM HEPES-NaOH pH 7.5, 150 mM NaCl
T1 construct: made in house
Excerpt: A construct encoding an extracellular ligand binding portion of the FGFR1 polypeptide set forth in FIG. 1A (SEQ ID NO:1) was expressed in E. coli and refolded […] using established protocols, as previously described by Plotnikov et al. (Cell 2000, 101:413-424). In particular, the soluble FGFR1 polypeptide expressed by this construct, which is referred to here as D23, comprises amino acid residues 142 to 365 of SEQ ID NO:1, which correspond to the immunoglobulin (Ig)-like domains 2 and 3 (D2 and D3, respectively), which are known to confer ligand binding and specificity for the FGFR receptor. However, the D23 polypeptide is missing the Ig-like domain 1 (D1), the acid box and the linker polypeptide sequence between D3 and the transmembrane helix. The D23 polypeptide is therefore similar to a naturally occurring splice variant of FGFR1 that retains full ligand binding capacity (Johnson et al., Mol. Cell. Biol. 1990, 10:4728-4736).
When expressed in E. coli cells, the D23 polypeptide was found entirely in inclusion bodies. The polypeptide was solubilized using standard denaturing reagents and refolded in vitro. Following purification by ion exchange chromatography, the D23 polypeptide was complexed with the FGF2 ligand polypeptide whose amino acid sequence is set forth in FIG. 2A (SEQ ID NO:3) and purified by size exclusion chromatography.
To quantitate dimerization, the purified 1:1 FGF2:FGFR1 complexes were mixed at various molar ratios with SOS and analyzed by size exclusion chromatography according on SUPERDEX 200® (Amersham Pharmacia Biotech.) size exclusion column in 25 mM HEPES-NaOH buffer (pH 7.5) containing 150 mM sodium chloride.
In these experiments, two milligram aliquots of the purified FGF2-FGFR1 complex described, supra, in Example 1 were mixed with suramin and analyzed on a size exclusion column equilibrated with 25 mM HEPES-NaOH buffer (pH 7.5) containing 150 mM NaCl.

[2] = tested on: BaF3 cells that stably expressed wild-type FGFR1; experiment: Proliferation of BaF3 cells stably expressing FGFR1 in the presence of FGF2; type: cell-based
Excerpt: This example describes experiments that investigated the ability of SOS to modulate FGF ligand-dependent activation of the FGF receptor in vivo. In particular, an assay is described here that uses a BaF3 cell line which overexpresses FGFR1. This cell line has been previously described and is therefore known in the art (see, e.g., Huang et al., J. Biol. Chem. 1995, 270:5065-5072).
(§1) BaF3 cells are a lymphoid cell line, which are dependent on interleukin-3 (IL-3) for growth. […] Accordingly, the growth rate of such transfected cells is useful as a measurement of FGF receptor activity in vivo. Because BaF3 cells express only low amounts of HSPG, soluble heparin must also be present to elicit the FGF-dependent mitogenic response observed in the transfected cells.
For the experiments discussed here, BaF3 cells that stably expressed wild-type FGFR1 (SEQ ID NO:1) were cultured according to standard methods that have been previously described (see, Huang et al., supra). 1×10^4 cells were seeded in triplicate wells and grown in the presence of heparin (3 μM) or, alternatively, in the presence of various concentrations (0.1, 0.5, 1, 5 and 10 μM, respectively) of SOS. The numbers of viable cells in each well were counted daily in duplicate.
Paradoxically, however, FGFR dimers promoted by suramin are signaling incompetent. That is to say, the FGF receptor is not activated in these dimers. […]

FGF2-FGFR1 complexes [3] = biological target: T1, FGF2-FGFR1 complexes; experiment: X-ray crystallography of the dimeric FGF2-FGFR1-SOS ternary complex
Protocol: This example describes x-ray crystallography experiments that better characterize the molecular mechanisms by which SOS may interact with and/or stabilize dimers of FGF-FGFR complexes. In particular, this example describes the crystalization of FGF2-FGFR1 complexes with SOS and the solution of that crystal structure by analyzing x-ray diffraction data.
Crystals of dimeric FGF2-FGFR1-SOS complexes were grown by vapor diffusion at 20° C. using the hanging drop method. 2 μL of protein solution (10 mg/mL in 25 mM HEPES-NaOH (pH 7.5) and 150 mM NaCl) was mixed with an equal volume of crystallization buffer (12-16% Polyethylene glycol 5000, 0.2 M ammonium sulfate and 15% glycerol in 0.1 M HEPES-NaOH (pH 7.5)). The protein solution contained a 1:1:1 stoichiometric ratio of FGF2, and soluble FGFR1 construct described, supra, in Example 1, and SOS.
The crystal belongs to the orthorhombic space group P21 21 21 and has unit cell dimensions of a=64.2 Å, b=122.4 Å and c=219.5 Å. The crystal contains four FGF2-FGFR1-SOS complexes in the asymmetric unit with a solvent content of about 56%.
Diffraction data were collected from a flash-frozen crystal on a CCD detector at beamline X4A at the National Synchrotron Light Source, Brookhaven National Laboratory. The data were processed using DENZO and SCALEPACK (Otwinowski & Minor, Methods Enzymol. 1997, 276:307-326). […]

FGFR1 = experiment: FGF receptor autophosphorylation in BaF3 cells over-expressing FGFR (anti-FGFR1 immunoprecipitation, phosphotyrosine immunoblot); type: cell-based; details: five minutes stimulation with FGF1 50 ng/ml plus heparin 10 μg/ml or sulfonated cyclodextrin 5 or 25 μM
Protocol: To verify that the effect of sulfonated β-cyclodextrin observed in FIG. 15A is actually due to activation of the FGF receptor, experiments were conducted that examined the capacity of heparin and β-cyclodextrin to stimulate kinase activity of FGF receptor in living cells. See, Mohammadi et al., Science 1997, 276:955-960 for a detailed description of such experiments.
Briefly, BaF3 cells over-expressing FGFR were stimulated for five minutes with FGF1 ligand (50 ng/ml), heparin (10 μg/ml) and/or sulfonated […] 5 or 25 μM). The cells were then lysed. Their proteins were immunoprecipitated with antibodies to FGFR1, separated by SDS-polyacrylamide gel electrophoresis (PAGE), immunoblotted with antibodies to phosphotyrosine, and detected by autoradiography. […] See, the left-hand and right-hand lanes, respectively, in FIG. 15B.

ERK-1 and ERK-2 = experiment: ERK-1/ERK-2 phosphorylation in BaF3 cells over-expressing FGFR1 (immunoblot); type: cell-based; details: co-incubation with FGF1 50 ng/ml; heparin 10 μg/ml or sulfonated β-cyclodextrin 5 and 25 μM
[4] = tested on: BaF3 cells that stably express wild-type FGFR1; experiment: Proliferation of BaF3 cells stably expressing FGFR1 in the presence of FGF1; type: cell-based; details: FGF1 50 ng/ml; sulfonated β-cyclodextrin 1, 5, 10 and 25 μM
Excerpt: This examples describes experiments that investigate the ability of sulfonated β-cyclodextrin to function as an effective heparin agonists. In particular, the cell-based assay described in Example 2, supra, is used here to investigate the ability of sulfonated β-cyclodextrin to modulate FGF ligand-dependent activation of the FGF receptor in vivo.
as §1, with “The assay uses a BaF3 cell line which overexpresses FGFR1. This cell line has been previously described and is known in the art (see, e.g., Huang et al., J. Biol. Chem. 1995, 270:5065-5072). BaF3 cells” for “BaF3 cells”, “in vivo. Ordinarily, because BaF3 cells” for “in vivo. Because BaF3 cells”
For the experiments described here, BaF3 cells that stably express wild-type FGFR1 ([…]) were cultured according to standard methods that have been previously described (see, Huang et al., supra). […] The numbers of viable cells in each well were counted daily in duplicate. […]

T1 sequence (P11362 142-365): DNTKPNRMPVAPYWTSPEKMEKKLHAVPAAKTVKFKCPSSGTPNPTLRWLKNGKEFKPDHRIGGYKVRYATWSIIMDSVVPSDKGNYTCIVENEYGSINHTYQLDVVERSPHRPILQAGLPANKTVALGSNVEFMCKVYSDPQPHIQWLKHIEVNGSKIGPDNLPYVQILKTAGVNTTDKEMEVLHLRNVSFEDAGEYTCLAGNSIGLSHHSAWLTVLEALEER
T1 sequence (P09038 134-288): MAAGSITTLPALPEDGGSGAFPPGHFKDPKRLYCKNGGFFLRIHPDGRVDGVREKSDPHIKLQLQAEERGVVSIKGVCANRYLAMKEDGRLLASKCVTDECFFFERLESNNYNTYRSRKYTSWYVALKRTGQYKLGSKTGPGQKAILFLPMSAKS

hydrogen bonds of the well ordered SOS molecule with FGF2 and both FGFR1 molecules (FGF2-FGFR1 complexes [3]; crystal structure at 2.6 Å resolution): 13
effect on FGF-FGFR binding affinity inferred from the crystal structure (FGF2-FGFR1 complexes [3]; interaction mimics heparin): increases FGF-FGFR binding affinity
Molecule: O=S(=O)(O)OC[C@H]1O[C@@](COS(=O)(=O)O)(O[C@H]2O[C@H](COS(=O)(=O)O)[C@@H](OS(=O)(=O)O)[C@H](OS(=O)(=O)O)[C@H]2OS(=O)(=O)O)[C@@H](OS(=O)(=O)O)[C@@H]1OS(=O)(=O)O [SOS, sucrose octasulfate]
dimerization of FGF:FGFR complex (peaks in size exclusion chromatogram) (FGF2-FGFR1 complexes [1]): only a peak corresponding to FGF:FGFR dimers is observed
dimerization of FGF:FGFR complex (dimer peak D in size exclusion chromatogram) (FGF2-FGFR1 complexes [1]): a third peak corresponding to dimers of the FGF:FGFR complex is observed
proliferation of BaF3 cells over expressing FGFR1 (daily viable cell counts) ([2]; FGF2 50 ng/ml, SOS 0.1, 0.5, 1, 5 and 10 μM): supports FGF2 in inducing proliferation of the BaF3 cells over expressing FGFR1 in a dose-dependent manner

Molecule: Cc1ccc(C(=O)Nc2ccc(S(=O)(=O)O)c3cc(S(=O)(=O)O)cc(S(=O)(=O)O)c23)cc1NC(=O)c1cccc(NC(=O)Nc2cccc(C(=O)Nc3cc(C(=O)Nc4ccc(S(=O)(=O)O)c5cc(S(=O)(=O)O)cc(S(=O)(=O)O)c45)ccc3C)c2)c1 [suramin]
dimerization of FGF:FGFR complex (peaks in size exclusion chromatogram) (FGF2-FGFR1 complexes [1]): only a peak corresponding to the FGF:FGFR dimers is observed
dimerization of FGF:FGFR complex (dimer peak D in size exclusion chromatogram) (FGF2-FGFR1 complexes [1]): a third peak corresponding to dimers of the FGF:FGFR complex is observed
heparin-like or SOS-like activity (FGF ligand-dependent activation of FGF receptor, BaF3 cell growth) ([2]; BaF3 cells grown with suramin instead of heparin or SOS, contacted with FGF ligand): no heparin-like or SOS-like activity was observed

Molecule: heparin
autophosphorylation of the FGF receptor (FGFR1): stimulated autophosphorylation of the FGF receptor
autophosphorylation of ERK-1 and ERK-2 (ERK-1 and ERK-2): induces autophosphorylation of ERK-1 and ERK-2

Molecule: sulfonated β-cyclodextrin
proliferation of BaF3 cells over expressing FGFR1 (daily viable cell counts) [4]: supports the FGF ligand in inducing proliferation of the BaF3 cells over expressing FGFR1 in a dose-dependent manner
autophosphorylation of the FGF receptor (FGFR1): results in autophosphorylation of the FGF receptor
autophosphorylation of ERK-1 and ERK-2 (ERK-1 and ERK-2): induces autophosphorylation of ERK-1 and ERK-2
